Where two headings read alike, the source gives them in different places.
Assays:
Format in all cases: binding
[1] = target: T1, HeLa cell extract proteins (Homo sapiens, UniProt Q969U7)
T1 construct: endogenous in cells; host or cells: HeLa cell extract
T1 sequence (Q969U7 1-264): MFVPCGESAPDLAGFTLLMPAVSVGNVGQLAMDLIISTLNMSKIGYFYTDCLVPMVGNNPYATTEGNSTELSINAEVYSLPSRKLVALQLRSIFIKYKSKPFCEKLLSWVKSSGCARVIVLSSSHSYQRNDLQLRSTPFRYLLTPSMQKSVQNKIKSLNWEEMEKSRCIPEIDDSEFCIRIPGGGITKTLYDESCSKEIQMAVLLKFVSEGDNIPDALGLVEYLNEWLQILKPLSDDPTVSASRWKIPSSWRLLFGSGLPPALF

[2] = target: T2, HeLa cell extract proteins (Homo sapiens, UniProt Q13126)
T2 construct: endogenous in cells; host or cells: HeLa cell extract
T2 sequence (Q13126 1-283): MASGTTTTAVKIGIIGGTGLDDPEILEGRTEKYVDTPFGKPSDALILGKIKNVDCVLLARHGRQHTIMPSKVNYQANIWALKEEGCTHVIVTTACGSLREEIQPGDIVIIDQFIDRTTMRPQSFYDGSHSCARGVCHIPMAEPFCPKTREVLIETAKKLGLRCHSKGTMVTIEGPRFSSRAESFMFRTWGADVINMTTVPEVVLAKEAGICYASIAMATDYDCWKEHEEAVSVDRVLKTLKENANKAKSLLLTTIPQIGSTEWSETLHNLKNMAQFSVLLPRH

[3] = target: T3, HeLa cell extract proteins (Homo sapiens, UniProt P62258)
T3 construct: endogenous in cells; host or cells: HeLa cell extract
T3 sequence (P62258 1-255): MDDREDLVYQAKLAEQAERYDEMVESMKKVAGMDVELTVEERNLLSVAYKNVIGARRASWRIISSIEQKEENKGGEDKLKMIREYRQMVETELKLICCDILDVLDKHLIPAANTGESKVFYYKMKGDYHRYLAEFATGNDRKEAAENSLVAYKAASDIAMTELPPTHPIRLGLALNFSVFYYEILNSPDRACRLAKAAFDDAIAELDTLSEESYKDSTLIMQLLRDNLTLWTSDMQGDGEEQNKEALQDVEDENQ

[4] = target: T4, HeLa cell extract proteins (Homo sapiens, UniProt Q12769)
T4 construct: endogenous in cells; host or cells: HeLa cell extract
T4 sequence (Q12769 1-1436): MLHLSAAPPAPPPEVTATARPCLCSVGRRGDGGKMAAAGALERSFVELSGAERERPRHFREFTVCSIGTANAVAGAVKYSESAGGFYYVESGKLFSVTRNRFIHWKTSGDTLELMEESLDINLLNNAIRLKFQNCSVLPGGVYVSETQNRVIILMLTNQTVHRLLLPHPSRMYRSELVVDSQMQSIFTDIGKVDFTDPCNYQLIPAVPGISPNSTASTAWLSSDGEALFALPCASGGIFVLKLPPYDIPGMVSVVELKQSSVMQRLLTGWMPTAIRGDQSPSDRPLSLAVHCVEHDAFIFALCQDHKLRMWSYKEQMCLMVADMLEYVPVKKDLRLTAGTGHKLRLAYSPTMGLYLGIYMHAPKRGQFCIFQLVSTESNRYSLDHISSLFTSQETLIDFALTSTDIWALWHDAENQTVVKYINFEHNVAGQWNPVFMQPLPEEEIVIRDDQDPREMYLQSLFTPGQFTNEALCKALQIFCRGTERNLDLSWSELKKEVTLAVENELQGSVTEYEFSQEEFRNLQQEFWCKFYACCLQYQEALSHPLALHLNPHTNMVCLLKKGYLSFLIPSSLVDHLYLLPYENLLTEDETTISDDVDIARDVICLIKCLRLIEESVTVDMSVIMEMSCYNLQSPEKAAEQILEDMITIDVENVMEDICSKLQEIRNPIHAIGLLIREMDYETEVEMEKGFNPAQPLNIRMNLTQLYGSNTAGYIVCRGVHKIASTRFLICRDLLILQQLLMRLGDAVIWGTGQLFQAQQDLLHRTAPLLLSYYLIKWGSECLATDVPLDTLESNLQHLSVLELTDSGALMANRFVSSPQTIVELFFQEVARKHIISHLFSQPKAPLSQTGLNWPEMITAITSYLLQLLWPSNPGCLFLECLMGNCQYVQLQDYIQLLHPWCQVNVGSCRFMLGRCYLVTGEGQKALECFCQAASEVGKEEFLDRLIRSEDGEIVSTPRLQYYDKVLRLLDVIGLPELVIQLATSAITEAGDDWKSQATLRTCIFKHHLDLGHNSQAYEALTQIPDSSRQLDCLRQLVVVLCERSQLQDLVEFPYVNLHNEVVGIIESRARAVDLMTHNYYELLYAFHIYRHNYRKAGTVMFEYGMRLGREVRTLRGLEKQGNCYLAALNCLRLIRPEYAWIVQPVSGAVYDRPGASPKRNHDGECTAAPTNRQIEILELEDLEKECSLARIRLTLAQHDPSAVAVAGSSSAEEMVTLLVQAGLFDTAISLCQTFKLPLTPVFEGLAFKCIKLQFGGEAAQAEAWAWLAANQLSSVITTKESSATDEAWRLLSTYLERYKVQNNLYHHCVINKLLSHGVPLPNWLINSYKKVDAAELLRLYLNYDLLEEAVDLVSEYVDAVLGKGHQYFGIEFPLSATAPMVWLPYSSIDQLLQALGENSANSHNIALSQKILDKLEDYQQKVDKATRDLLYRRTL

[5] = target: T5, HeLa cell extract proteins (Homo sapiens, UniProt P10599)
T5 construct: endogenous in cells; host or cells: HeLa cell extract
T5 sequence (P10599 1-105): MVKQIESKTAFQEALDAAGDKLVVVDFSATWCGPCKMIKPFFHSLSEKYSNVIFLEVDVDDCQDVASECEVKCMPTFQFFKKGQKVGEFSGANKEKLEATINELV

[6] = target: T6, HeLa cell extract proteins (Homo sapiens, UniProt Q92947)
T6 construct: endogenous in cells; host or cells: HeLa cell extract
T6 sequence (Q92947 45-438): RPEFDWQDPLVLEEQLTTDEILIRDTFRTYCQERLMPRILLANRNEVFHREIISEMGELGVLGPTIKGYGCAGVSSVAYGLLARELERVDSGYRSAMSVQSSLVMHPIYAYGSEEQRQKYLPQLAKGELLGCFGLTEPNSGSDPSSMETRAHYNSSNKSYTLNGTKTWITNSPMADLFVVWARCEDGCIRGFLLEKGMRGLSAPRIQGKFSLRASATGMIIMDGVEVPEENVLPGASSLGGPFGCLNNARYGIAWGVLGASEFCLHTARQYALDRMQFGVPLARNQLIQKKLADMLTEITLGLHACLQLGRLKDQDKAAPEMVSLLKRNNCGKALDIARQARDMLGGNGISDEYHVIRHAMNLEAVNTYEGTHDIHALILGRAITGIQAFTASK

Nc1nc2cccc(-c3ccccc3)c2n1Cc1ccc(Cl)c(Cl)c1 [compound 3]
fold changes relative to vehicle control ([1]; protein PSMG2, HeLa): 0.87 | fold changes relative to vehicle control ([2]; protein MTAP, HeLa): 0.99 | fold changes relative to vehicle control ([3]; protein YWHAE, HeLa): 1.03 | fold changes relative to vehicle control ([4]; HeLa, protein NUP160): 1.2 | fold changes relative to vehicle control ([5]; captured protein TXN, HeLa): 1.12 | fold changes relative to vehicle control ([6]; captured protein GCDH, HeLa): 0.98

NCCOCCOCC(=O)Nc1nc2ncc(CNc3ccc(C(=O)NC(CCC(=O)O)C(=O)O)cc3)nc2c(=O)[nH]1 (stereo not drawn) [compound 6]
fold changes relative to vehicle control ([1]; HeLa, captured protein PSMG2): 1 | fold changes relative to vehicle control ([2]; HeLa, captured protein MTAP): 0.95 | fold changes relative to vehicle control ([3]; HeLa, protein YWHAE): 1.17 | fold changes relative to vehicle control ([4]; HeLa, captured protein NUP160): 1.14 | fold changes relative to vehicle control ([5]; HeLa, protein TXN): 1.28 | fold changes relative to vehicle control ([6]; HeLa, captured protein GCDH): 0.62

Nc1nc2[nH]cc(CCc3ccc(C(=O)N[C@@H](CCC(=O)O)C(=O)O)cc3)c2c(=O)[nH]1 [PTX, pemetrexed]
fold changes relative to vehicle control [1]: 0.97 | fold changes relative to vehicle control [2]: 0.98 | fold changes relative to vehicle control [3]: 1.1 | fold changes relative to vehicle control [4]: 1.07 | fold changes relative to vehicle control [5]: 1.13 | fold changes relative to vehicle control [6]: 0.75

Nc1nc2c(c(=O)[nH]1)N(C=O)C(CNc1ccc(C(=O)N[C@@H](CCC(=O)O)C(=O)O)cc1)CN2 (stereo partly drawn) [LEU, leucovorin]
fold changes relative to vehicle control ([1]; HeLa, captured protein PSMG2): 1.05 | fold changes relative to vehicle control ([2]; HeLa, captured protein MTAP): 1.13 | fold changes relative to vehicle control ([3]; HeLa, protein YWHAE): 1.01 | fold changes relative to vehicle control ([4]; HeLa, captured protein NUP160): 1.02 | fold changes relative to vehicle control ([5]; HeLa, protein TXN): 1.05 | fold changes relative to vehicle control ([6]; HeLa, captured protein GCDH): 0.96

CCCCCCOc1ccc(Cc2cnc(N)nc2N)cc1 [compound 1]
fold changes relative to vehicle control ([1]; protein PSMG2, HeLa): 1 | fold changes relative to vehicle control ([2]; protein MTAP, HeLa): 0.9 | fold changes relative to vehicle control ([3]; protein YWHAE, HeLa): 1.37 | fold changes relative to vehicle control ([4]; HeLa, protein NUP160): 1.03 | fold changes relative to vehicle control ([5]; captured protein TXN, HeLa): 0.95 | fold changes relative to vehicle control ([6]; captured protein GCDH, HeLa): 0.91

NCCCNc1ccc(C(=O)NC(CCC(=O)O)C(=O)O)cc1 (stereo not drawn) [compound 7]
fold changes relative to vehicle control ([1]; HeLa, captured protein PSMG2): 0.98 | fold changes relative to vehicle control ([2]; HeLa, captured protein MTAP): 1.01 | fold changes relative to vehicle control ([3]; HeLa, protein YWHAE): 1.03 | fold changes relative to vehicle control ([4]; HeLa, captured protein NUP160): 1.12 | fold changes relative to vehicle control ([5]; HeLa, protein TXN): 1.33 | fold changes relative to vehicle control ([6]; HeLa, captured protein GCDH): 0.98

CCCCCCOc1cccc(Cc2cnc(N)nc2N)c1 [compound 2]
fold changes relative to vehicle control ([1]; protein PSMG2, HeLa): 1.03 | fold changes relative to vehicle control ([2]; protein MTAP, HeLa): 0.78 | fold changes relative to vehicle control ([3]; protein YWHAE, HeLa): 2 | fold changes relative to vehicle control ([4]; HeLa, protein NUP160): 1.11 | fold changes relative to vehicle control ([5]; captured protein TXN, HeLa): 1.18 | fold changes relative to vehicle control ([6]; captured protein GCDH, HeLa): 0.95

From PMC6199744, “Development of Chemical Proteomics for the Folateome and Analysis of the Kinetoplastid Folateome” (ACS Infectious Diseases, 2018)
